Measurements from patent publication US11524010B2, “Substituted quinazoline sulfonamides as thioredoxin interacting protein (TXNIP) inhibitors” (SOUTHERN RESEARCH INSTITUTE, priority 2017, dated 2022).

What was measured:
TXNIP = experiment: Inhibition of glucose-induced endogenous TXNIP expression in INS-1 cells (qRT-PCR); assay type: cell-based, Rat; conditions: 25 mM glucose; for inhibition at 1.5 µM / inhibition at 12.5 µM: Rattus norvegicus, INS1, 24 h
Protocol: The Rat INS-1 cell line was obtained from UAB and maintained in RPMI-1640 (Invitrogen #11875) supplemented with 10% fetal bovine serum (FBS), 100 U/ml penicillin and […] streptomycin, 10 mM HEPES, 1 mM Sodium Pyruvate, 50 μM 2-Mercaptoethanol, and 11.1 mM Glucose in a humidified incubator with a 5% C02 atmosphere at 37° C. 4×10^4 cells per well were seeded to 96-well plate and incubated at 37° C. overnight. A subset of the cells were then cultured in medium with 5 mM Glucose for 24 hrs and then treated in medium with 25 mM glucose with or without compounds to be tested for another 24 hrs.
For the primary high throughput screening (HTS) assay, stably transfected, monoclonal INS-1 cells were split using Trypsin (2 ml per T75 flask) and seeded at a density of 10^4/well in a 384-well plate and incubated overnight at low, 5 mM glucose. The next day, the medium was changed to high glucose (25 mM) or high glucose plus the small molecules to be tested and luciferase assays were performed 24 h later. […] For secondary screens, total RNA was extracted from 96-well cultured cells using RNeasy 96 kit (Qiagen #74181) following the manufacturer's protocol using spin technology. Then a one-step qRT-PCR amplification was performed using QuantiFast SYBR Green RT-PCR kit (Qiagen #204154) and was carried out in a 10 μl reaction which consisted of 2 μl RNA, 0.5 μM each of primers (Rat TXNIP 5′ primer: […] (SEQ ID NO:1) and Rat TXNIP 3′ primer: […] (SEQ ID NO:2); Or Rat 18S rRNA 5′ primer: […] (SEQ ID NO:3) and Rat 18S rRNA 3′ primer: […]) (SEQ ID NO:4), 5 μl 2×SYBR Green Master Mix, 0.1 μl 10× QuantiFast RT Mix. The SYBR Green assay was performed using a LightCycler 480 II (Roche Applied Science) with an initial incubation at 50° C. for 10 min for RT followed by denaturation at 95° C. for 5 min. Forty cycles of amplification were performed using a thermal cycling profile of 95° C. for 10s, 60° C. for 30 s. Subsequently, a melting curve was recorded by holding at 95° C. for 60 s, cooling to 60° C. for 60 s, and then heating at 0.11° C./s up to 95° C. The data was collected and analyzed using the LightCycler 480 Software Release 1.5.0 SP3. The relative amount of TXNIP mRNA was normalized to 18 s rRNA level as a housekeeping gene, and the data was analyzed according to the 2^−ΔΔCT method (1). The transformed data was expressed as % inhibition and compound IC50 calculated by a 4-parameter logistic fit of the data using GraphPad Prism 7.

[1] = INS-1 cell viability (Cell Titer-Glo, ATP); assay type: cell-based, Rat; conditions: rat, INS-1 cells, 72 hrs treatment
Protocol: INS-1 cell viability was determined based on quantification of ATP using Cell Titer-Glo Luminescent Cell Viability Assay kit (Promega #G7572), which indicates the presence of metabolically active cells. Briefly, INS-1 cells were seeded into 96-well plates at a cell density of 4.5×10^4 and 3.5×10^4 cells per well and incubated overnight at 37° C. with 5% CO2. On the following day, cells were treated with compounds for 24 hrs and 72 hrs respectively. Cell Titer-Glo reagent was added to the cells and Luminescence was acquired on Synergy 4 Reader ([…]).

Row | SMILES | inhibition at 1.5 µM (TXNIP; 1.5 μM compound) [%] | inhibition at 12.5 µM (TXNIP; 12.5 μM compound) [%] | CC50 at 72 h [1] [µM] | TXNIP % Inhibition at 1.5 μM (TXNIP; 1.5 μM compound, 24 hrs) [%] | TXNIP % Inhibition at 12.5 μM (TXNIP; 12.5 μM compound, 24 hrs) [%]
1 | CS(=O)(=O)NC1CCCN(c2ncnc3cc(F)ccc23)C1 (centres unmarked) [Compound 32, N-(1-(7-fluoroquinazolin-4-yl)piperidin-3-yl)methanesulfonamide] | 21 | 62 | 65 | – | –
2 | CC(C)c1nc(N2CCCC(CNS(C)(=O)=O)C2)c2ccccc2n1 (centres unmarked) [Compound 15, N-((1-(2-isopropylquinazolin-4-yl)piperidin-3-yl)methyl)methanesulfonamide] | 0 | 20 | 73 | – | –
3 | CS(=O)(=O)NCC1CCCN(c2ncnc3ccc(-c4ccccn4)cc23)C1 (centres unmarked) [Compound 27, N-((1-(6-(pyridin-2-yl)quinazolin-4-yl)piperidin-3-yl)methyl)methanesulfonamide] | 9 | 4 | 70 | – | –
4 | CS(=O)(=O)NCC1CCCN(c2ncnc3c(Cl)cc(F)cc23)C1 (centres unmarked) [Compound 10, N-((1-(8-chloro-6-fluoroquinazolin-4-yl)piperidin-3-yl)methyl)methanesulfonamide] | 23 | 51 | > 100 | – | –
5 | CS(=O)(=O)NCC1CCCN(c2ncnc3ccc(C#N)cc23)C1 (centres unmarked) [Compound 13, N-((1-(6-cyanoquinazolin-4-yl)piperidin-3-yl)methyl)methanesulfonamide] | 41 | 1 | 42 | – | –
6 | CS(=O)(=O)NC1CN(c2ncnc3ccc(F)cc23)C1 [Compound 52] | 4 | 5 | > 100 | – | –
7 | CS(=O)(=O)NCC1CCCN(c2ncnc3cc(C(F)(F)F)ccc23)C1 (centres unmarked) [Compound 12, N-((1-(7-(trifluoromethyl)quinazolin-4-yl)piperidin-3-yl)methyl)methanesulfonamide] | 0 | 13 | > 100 | – | –
8 | CS(=O)(=O)NCC1CN(c2ncnc3cc(C(N)=O)c(F)cc23)CCO1 (centres unmarked) [Compound 47, 6-fluoro-4-(2-(methylsulfonamidomethyl)morpholino)quinazoline-7-carboxamide] | 5 | 7 | > 100 | – | –
9 | CS(=O)(=O)NC1CCCN(c2ncnc3ccccc23)C1 (centres unmarked) [Compound 31, N-(1-(quinazolin-4-yl)piperidin-3-yl)methanesulfonamide] | 17 | 82 | 67 | – | –
10 | CS(=O)(=O)NC1CCCN(c2ncnc3ccc(C(F)(F)F)cc23)C1 (centres unmarked) [Compound 38, N-(1-(6-(trifluoromethyl)quinazolin-4-yl)piperidin-3-yl)methanesulfonamide] | 34 | 60 | > 100 | – | –
11 | O=S(=O)(NCC1CCCN(c2ncnc3ccc(C(F)(F)F)cc23)C1)c1ccccc1 (centres unmarked) [Compound 54, N-((1-(6-(trifluoromethyl)quinazolin-4-yl)piperidin-3-yl)methyl)benzenesulfonamide] | 19 | 53 | 17 | – | –
12 | CS(=O)(=O)NCC1(F)CCCN(c2ncnc3cc(F)c(C#N)cc23)C1 (centres unmarked) [Compound 50, N-((1-(6-cyano-7-fluoroquinazolin-4-yl)-3-fluoropiperidin-3-yl)methyl)methanesulfonamide] | 2 | 18 | > 100 | – | –
13 | CS(=O)(=O)NCC1CCCN(c2ncnc3ccc(NC(=O)c4ccccn4)cc23)C1 (centres unmarked) [Compound 28, N-(4-(3-(methylsulfonamidomethyl)piperidin-1-yl)quinazolin-6-yl)picolinamide] | 4 | 5 | > 100 | – | –
14 | COc1cc2ncnc(N3CCCC(CNS(C)(=O)=O)C3)c2cc1OC (centres unmarked) [Compound 8, N-((1-(6,7-dimethoxyquinazolin-4-yl)piperidin-3-yl)methyl)methanesulfonamide] | 0 | 7 | > 100 | – | –
15 | CC1(CNS(C)(=O)=O)CCCN(c2ncnc3cc(F)c(C#N)cc23)C1 (centres unmarked) [Compound 48] | 3 | 26 | > 100 | – | –
16 | CS(=O)(=O)NCC1CCCN(c2ncnc3cc(F)c(F)cc23)C1 (centres unmarked) [Compound 7, N-((1-(6,7-difluoroquinazolin-4-yl)piperidin-3-l)methyl)methanesulfonamide] | 40 | 54 | > 100 | – | –
17 | CS(=O)(=O)NCC1CCCN(c2nc[n+]([O-])c3ccc(C(F)(F)F)cc23)C1 (centres unmarked) [Compound 61, 4-(3-(methylsulfonamidomethyl)piperidin-1-yl)-6-(trifluoromethyl)quinazoline 1-oxide] | 2 | 25 | > 100 | – | –
18 | COc1ccc2ncnc(N3CCCC(CNS(C)(=O)=O)C3)c2c1 (centres unmarked) [Compound 5, N-((1-(6-methoxyquinazolin-4-yl)piperidin-3-yl)methyl)methanesulfonamide] | 30 | 58 | > 100 | – | –
19 | CS(=O)(=O)NCC1CCCN(c2ncnc3cc(C(=O)O)ccc23)C1 (centres unmarked) [Compound 18, 4-(3-(methylsulfonamidomethyl)piperidin-1-yl)quinazoline-7-carboxylic acid] | 10 | 10 | > 100 | – | –
20 | CS(=O)(=O)NC1CCCN(c2ncnc3cc(F)c(F)cc23)C1 (centres unmarked) [Compound 33, N-(1-(6,7-difluoroquinazolin-4-yl)piperidin-3-yl)methanesulfonamide] | 29 | 68 | 68 | – | –
21 | O=S(=O)(NCC1CCCN(c2ncnc3ccc(F)cc23)C1)N1CCOCC1 (centres unmarked) [Compound 60, N-((1-(6-fluoroquinazolin-4-yl)piperidin-3-yl)methyl)morpholine-4-sulfonamide] | 32 | 56 | 16 | – | –
22 | O=S(=O)(NCC1CCCN(c2ncnc3ccc(F)cc23)C1)C1CC1 (centres unmarked) [Compound 58, N-((1-(6-fluoroquinazolin-4-yl)piperidin-3-yl)methyl)cyclopropanesulfonamide] | 15 | 65 | 57 | – | –
23 | CS(=O)(=O)NCC1CCCN(c2ncnc3c(F)cccc23)C1 (centres unmarked) [Compound 3, N-((1-(8-fluoroquinazolin-4-yl)piperidin-3-yl)methyl)methanesulfonamide] | 4 | 59 | > 100 | – | –
24 | O=S(=O)(NCC1CCCN(c2ncnc3ccc(C(F)(F)F)cc23)C1)C1CC1 (centres unmarked) [Compound 57, N-((1-(6-(trifluoromethyl)quinazolin-4-yl)piperidin-3-yl)methyl)cyclopropanesulfonamide] | 33 | 67 | 43 | – | –
25 | CS(=O)(=O)NCC1CCCN(c2ncnc3cc(O)c(C(F)(F)F)cc23)C1 (centres unmarked) [Compound 63, N-((1-(7-hydroxy-6-(trifluoromethyl)quinazolin-4-yl)piperidin-3-yl)methyl)methanesulfonamide] | 10 | 5 | > 100 | – | –
26 | N#Cc1cc2ncnc(N3CCCC(CNS(=O)(=O)C(F)(F)F)C3)c2cc1F (centres unmarked) [Compound 53, N-((1-(7-cyano-6-fluoroquinazolin-4-yl)piperidin-3-yl)methyl)-1,1,1-trifluoromethanesulfonamide] | 7 | 24 | > 100 | – | –
27 | CS(=O)(=O)NCC1CCCN(c2ncnc3cc(F)c(C#N)cc23)C1.Cl (centres unmarked) [Compound 29a, N-((1-(6-cyano-7-fluoroquinazolin-4-yl)piperidin-3-yl)methyl)methanesulfonamide hydrochloride] | – | – | – | 35 | 55
